Data from PubChem BioAssay (NCI).
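All cell lines were grown in 96-well plates and treated with compound for 48 hours. Here, GI50 denotes the concentration required for 50% inhibition of growth. TGI is the concentration that stops growth completely.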

Legend:
Experiment in all cases: DTP human tumour cell line panel, 48 h
RXF 393 renal = system: RXF 393 renal
M14 melanoma = system: M14 melanoma
NCI/ADR-RES ovarian = system: NCI/ADR-RES ovarian
EKVX NSCLC = system: EKVX NSCLC
MOLT-4 leukemia = system: MOLT-4 leukemia
MALME-3M melanoma = system: MALME-3M melanoma
HS 578T breast = system: HS 578T breast
SK-OV-3 ovarian = system: SK-OV-3 ovarian
CCRF-CEM leukemia = system: CCRF-CEM leukemia
HCC-2998 colon = system: HCC-2998 colon

| SMILES | TGI (RXF 393 renal) [µM] | TGI (M14 melanoma) [µM] | TGI (NCI/ADR-RES ovarian) [µM] | TGI (EKVX NSCLC) [µM] | TGI (MOLT-4 leukemia) [µM] | TGI (MALME-3M melanoma) [µM] | TGI (HS 578T breast) [µM] | TGI (SK-OV-3 ovarian) [µM] | TGI (CCRF-CEM leukemia) [µM] | TGI (HCC-2998 colon) [µM] | GI50 (RXF 393 renal) [µM] | GI50 (M14 melanoma) [µM] | GI50 (HCC-2998 colon) [µM] | GI50 (NCI/ADR-RES ovarian) [µM] | GI50 (EKVX NSCLC) [µM] | GI50 (MOLT-4 leukemia) [µM] | GI50 (MALME-3M melanoma) [µM] | GI50 (HS 578T breast) [µM] | GI50 (SK-OV-3 ovarian) [µM] | GI50 (CCRF-CEM leukemia) [µM] |
| --- | --- | --- | --- | --- | --- | --- | --- | --- | --- | --- | --- | --- | --- | --- | --- | --- | --- | --- | --- | --- |
| CNc1ncnc(Sc2nc(N)nc3nc[nH]c23)c1[N+](=O)[O-] | 8.06 | 19.4 | 34.4 | 47 | 4.77 | 18.9 | > 43.9 | > 100 | 0.892 |  |  |  |  |  |  |  |  |  |  |  |
| CCC1(C)C=Cc2c(cc(OC)c3c(=O)c4ccccc4n(C)c23)O1 (stereo unspecified) | 5.52 | > 10 | > 10 | > 10 | > 10 | > 10 | > 10 | > 10 | > 10 | > 10 |  |  |  |  |  |  |  |  |  |  |
| CN(C)CCCNc1c(O)c2c(c(O)c1Cl)C(=O)C=CC2=O |  | 2.9 | 5.38 | > 10 | 5.04 | 3.25 | 3.65 | > 10 | 5.7 | 3.22 |  |  |  |  |  |  |  |  |  |  |
| OC1(c2ccccc2)CC2CCC(C1)N2CCc1ccccc1 (stereo unspecified) | > 100 | > 100 | > 100 | > 100 | > 100 | > 100 | 80.6 | > 100 | > 100 | > 100 |  |  |  |  |  |  |  |  |  |  |
| O=c1[nH]c2ccc(C(F)(F)F)cc2nc1-c1ccccc1 | > 100 | > 100 | > 100 | > 100 | > 100 | > 100 | > 100 |  | > 100 | > 100 |  |  |  |  |  |  |  |  |  |  |
| CCOC(=O)C1C(=O)CC(O)(OCC)C(C(=O)OCC)C1c1ccc(OC)cc1 (stereo unspecified) | > 100 |  | > 100 | > 100 | > 100 | > 100 |  |  | > 100 | > 100 |  |  |  |  |  |  |  |  |  |  |
| Cc1cc2nc3n[nH]c(N)c3nc2cc1C | > 100 | > 100 | > 100 | > 100 | > 100 | > 100 | > 100 | > 100 | > 100 | > 100 |  |  |  |  |  |  |  |  |  |  |
| C=C1C(=O)O[C@@H]2[C@H]3O[C@]3(C)CCC=C(C)CC[C@@H]12 | 27.4 |  | 45.3 | 39.2 | 92 | 25.3 |  | 131 | 59.9 | 56.1 |  |  |  |  |  |  |  |  |  |  |
| CCOc1c2ccsc2c(OCC)c2ccsc12 | > 24.2 | > 100 | > 100 | > 100 | > 28.5 | > 100 | > 73.7 | > 100 | > 100 | > 75.5 |  |  |  |  |  |  |  |  |  |  |
| CN(C)c1nc(N(C)C)nc(N(C)C)n1 | > 150 | > 150 | > 150 | > 150 | 136 | > 150 | > 150 | > 150 | > 150 | > 123 |  |  |  |  |  |  |  |  |  |  |
| CCOC(=O)C1(C(=O)OCC)C[C@]23OCCC(=O)[C@H]2[C@H]2C(=O)OC(C)(C)O[C@]23C1 |  | > 100 | > 100 | > 100 | > 100 | > 100 | > 100 |  | > 100 | > 100 |  |  |  |  |  |  |  |  |  |  |
| CCCC1NC(=O)C(CC(C)C)NC(=O)c2cccc(n2)C(=O)NC(CC(C)C)C(=O)NC(CCC)C(=O)NC(C(=O)OC)CCCCNC1=O (stereo unspecified) | > 100 | > 100 | > 100 | 90.9 | 44.8 | 62.8 | > 100 | 91.5 | 36.6 | 41.7 |  |  |  |  |  |  |  |  |  |  |
| CCN(CC)C(=S)SS(=O)(=O)c1ccccc1C(=O)O | > 100 | > 100 | > 100 | > 100 | > 100 | > 100 | > 100 | > 100 | > 100 | > 100 |  |  |  |  |  |  |  |  |  |  |
| CC(=O)OCC1OC(On2ccccc2=S)C(OC(C)=O)C(OC(C)=O)C1OC(C)=O (stereo unspecified) | > 100 | > 100 | > 100 | > 100 | > 100 | > 100 | > 100 | > 100 | 34.5 | > 100 |  |  |  |  |  |  |  |  |  |  |
| CCc1ccc(-c2nnc(COc3ccc(-c4nc5ccc(C)cc5[nH]4)cc3OC)o2)cc1 | 3.29 | 5.84 | 37.5 | > 100 | > 100 | 3.11 | 5.01 | 11.1 | > 100 | > 100 | 1.75 | 2.27 | 11.4 | 3.28 | 4.14 | 3.26 | 1.56 | 2.07 | 3.29 | 3.06 |
| CNC(=S)/C(=N\Nc1nc[nH]c1C(N)=O)C(N)=S | > 100 | > 100 | > 64.5 | > 100 |  | > 54.8 | > 81.8 | > 31.6 |  | 22.8 |  |  |  |  |  |  |  |  |  |  |
| CCOC(=O)c1c(C)n(Cc2ccccc2)c(=O)c2ccccc2c(=O)c2c(=O)ccc(=O)c1=2 | 40.7 | > 100 | > 100 | > 100 | > 100 | 41.9 | > 100 | > 100 | > 100 | > 100 |  |  |  |  |  |  |  |  |  |  |
| O=C(OCCN=C1c2ccccc2CCc2ccccc21)c1cc([N+](=O)[O-])cc([N+](=O)[O-])c1 | > 31.6 | > 31.6 | > 31.6 | > 31.6 | 7.09 | > 31.6 | > 31.6 | > 100 | > 100 |  |  |  |  |  |  |  |  |  |  |  |
| CSC1=N/C(=C\c2ccc(C)cc2)C(=O)N1CN1CCOCC1 |  | > 100 | > 100 | > 100 | > 100 | > 100 | > 100 | > 100 | > 100 |  |  |  |  |  |  |  |  |  |  |  |
| CCOC(=O)CN1CCNCCN(CC(=O)OCC)CCNCC1 | > 100 |  | > 100 | > 100 | > 100 |  | > 100 | > 100 | > 100 | > 100 |  |  |  |  |  |  |  |  |  |  |
| c1ccc(COc2ccc(CC3SCCCS3)cc2)cc1 |  | > 100 |  | > 100 | > 100 | > 100 |  |  | > 100 | > 100 |  |  |  |  |  |  |  |  |  |  |
| O=c1c(O)c(-c2ccc(O)cc2O)oc2cc(O)cc(O)c12 |  | > 100 | > 100 | > 100 |  | > 100 | > 100 |  | > 100 | > 100 |  |  |  |  |  |  |  |  |  |  |
